Experimental data published in paper PMC11926880, “Procognitive Potential of Neuroprotective Triazine 5-HT6 Receptor Antagonists Tested on Chronic Activity In Vivo in Rats: Computer-Aided Insight into the Role of Chalcogen-Differences on the Pharmacological Profile” (ACS Chemical Neuroscience, 2025).
Read-outs that look alike come from different tables or passages of the source.

Assays:
[1] = test system: SH-SY5Y cells; experiment: MTS cell viability assay 27 h; type: cell-based, human; settings: for IC50: SH-SY5Y
Description: This study used the human neuroblastoma cell line SH-SY5Y (ATCC no. CRL-2266) to investigate the effect on the neuronal cells. The cells (8 × 10^3 cells/100 μL/well) were seeded in transparent 96-well plates (Thermo Scientific, Nunc, no. 161093) in DMEM/F12 (Gibco, no. 11039021) supplemented with 10% FBS (Gibco, no. 10500-064) and cultured overnight. […] Treatment with the compounds was performed for 27 h. After incubation, the cell viability was examined using an MTS-based CellTiter96 AQueous One Solution Cell Proliferation Assay (Promega, Madison, WI, USA) following the manufacturer’s protocol. Briefly, 20 μL of MTS solution was pipetted into each well containing 100 μL of culture or culture medium (negative control) and incubated at 37 °C for 1 h. The absorbance was measured at 490 nm using a Tecan Spark’s multimode plate reader (Tecan, Männedorf, Switzerland). A reference wavelength of 630 nm was used to subtract the background.

[2] = test system: SH-SY5Y cells; experiment: ROS assay (2',7'DCFH2-DA), rotenone-induced neurotoxicity; type: cell-based, human
Description: The ROS measurement was assayed by 2′,7′-dichlorofluorescin diacetate (2′, 7′DCFH2-DA, Sigma, no. D6883). The protocol was previously described in detail.[10] […] The following day, all treatments were carried out with warmed HBSS containing 25 mM HEPES (hereafter referred to as HBSS), and during the operational steps, the cells were kept at 37 °C to minimize temperature stress.

[3] = test system: NRF2; experiment: Western blot for NRF2 (total and nuclear extracts); type: cell-based, human; settings: 10 μM, 24 h
[4] = test system: HT-22 cell line; experiment: protection against Aβ1–42, cell membrane damage (ToxiLight); type: cell-based, mouse; settings: 10 μM pretreatment 1 h, Aβ1–42 35 μM 16 h
Description: Cells were cultured in Dulbecco’s modified Eagle’s Medium-high glucose (DMEM, GlutaMAX ThermoFisher) supplemented with 10% inactivated fetal bovine serum heat (Thermo Fisher), 100 IU/mL penicillin (Merck), and 100 μg/mL streptomycin (Merck). Cells were cultured in flasks (area 175 cm^2, Nunc) and incubated at 37 °C, 5% CO2. To measure the neuroprotective effect against Aβ1–42, cells were placed in a 96-well culture plate (5 × 10^3 cells per well, Falcon). To measure the toxicity of tested compounds, cells were placed in a 96-well culture plate (5 × 10^3 and 2 × 10^4 cells per well, Falcon).
Stock solutions were prepared at a concentration of 10 mM for the tested compounds. A minimum of 1 mg of each tested compound was weighed and dissolved in an appropriate volume of dimethyl sulfoxide (DMSO). Serial dilutions were prepared in DMSO, and then, the diluted compounds were transferred to phosphate-buffered saline (PBS), mixed, and put into a medium with adherent cells. Before the assays, eventual precipitation or opalescence was checked. […]
Then, 20 μL of adenylate kinase detection reagent was added. The luminescence was measured after 10 min of incubation with a plate reader, POLARstar Omega (BMG Labtech). The results are expressed as a percentage of the control (Aβ1–42), corresponding to the percentage of dead cells concerning the control sample.

[5] = test system: rats; experiment: NORT after 21 day administration, discrimination index; type: in vivo, rat; settings: 21 days; for reversal of (+)MK-801-induced memory disturbances (DI): (+)MK-801 0.1 mg/kg
Description: Standard laboratory food (LSM-B) and filtered water as well as environment enrichment were freely available. Animals were randomly divided into treatment groups using a computer-based random order generator. All of the experiments were performed by two observers unaware of the treatment applied between 9:00 and 14:00 on separate groups of animals.
In the NOR test (NORT), rats were randomly divided into experimental groups (n = 8/group). […] All compounds were prepared immediately before administration and were injected intraperitoneally (i.p.) in a constant volume of 2 mL/kg. […] The control group received 1% Tween 80 on the same schedule.
The test was carried out according to the method described by Ennaceur.[46] NORT was conducted in two black-painted wood boxes (60 cm × 60 cm × 60 cm). A video camera mounted above the boxes recorded all experiments. Two days before the test, the rats were placed in the empty experimental boxes for 5 min as a habituation to the test area. On the third day, the test was performed in 2 trials lasting for 3 min at one-hour intervals. First session, familiarization (T1) with two identical objects (A1 and A2) located in the opposite corners of the boxes, approximately 10 cm from the walls, and second trial, recognition (T2) with one familiar (A) and one novel object (B). Metal cans and glass jars with sand were used as the objects. The boxes were cleaned and dried after each measurement. The exploration time (E) of the objects (such as looking, licking, sniffing, or touching while sniffing) during T2 was measured, and the discrimination index (DI) was calculated according to the following formula: DI = (EB – EA)/(EA + EB).
The normality of data distribution and the homogeneity of variance were checked using the Shapiro–Wilk’s test and Levene’s test, respectively. All behavioral results are shown as the means ± SEM.

[6] = design: method as in PMID 38190615, PMID 35228010; settings: cited from earlier work
[7] = test system: HepG2; design: method as in PMID 38190615, PMID 35228010; settings: tested at 0.1–100 μM; cited from earlier work
[8] = design: method as in PMID 38190615, PMID 35228010; settings: AMES test; cited from earlier work
[9] = test system: ABCB1; design: method as in PMID 35228010; settings: previous evidence; cited from earlier work
[10] = molecular target: 5-HT1AR; settings: read-out: radioligand binding assay Ki; cloned receptors; cited from earlier work
[11] = molecular target: 5-HT2AR; settings: read-out: radioligand binding assay Ki; cloned receptors; cited from earlier work
[12] = test system: rats; settings: acute administration, male Wistar rats, (+)MK-801; cited from earlier work

CN1CCN(c2nc(N)nc(C(C)(C)Sc3ccc4ccccc4c3)n2)CC1 [WA-22, 4-(4-methylpiperazin-1-yl)-6-(2-(naphthalen-2-ylthio)propan-2-yl)-1,3,5-triazin-2-amine]
IC50 ([1]; Homo sapiens, 27 h, read-out: IC50 x̅ ± SD, MTS, SH-SY5Y, 27 h of exposure): > 200 µM
effect on cell viability ([1]; all tested concentrations (0–50 μM), 27 h): did not affect cell viability
IC50 ([1]; read-out: IC50 x̅ ± SD, MTS, 27 h of exposure): 238 ± 15 µM
ROS level (Ctr set as 100%) ([2]; compound 10 μM pretreatment 1 h, then ROT 32.5 μM 3 h): 128%
effect on ROS of compound alone ([2]; without ROT): did not exert any effect
NRF2 protein amount (total extract) ([3]; GAPDH loading control): protein amount was not modulated
NRF2 translocation from cytoplasm to nucleus ([3]; nuclear extracts, H3 loading control): effectively induce a shuffling of this protein inside the nucleus
protection of cell integrity against membrane destruction caused by Aβ1–42 [4]: neuroprotective activities
influence on memory compared to vehicle-treated rats (DI) ([5]; 1 mg/kg/day i.p., without (+)MK-801): No memory changing
reversal of (+)MK-801-induced memory disturbances (DI) ([5]; 1 mg/kg/day i.p.): significantly reversed
reversal of (+)MK-801-induced memory disturbances (DI) ([5]; 3 mg/kg/day i.p.): also observed for a dose of 3 mg/kg, but memory restoration was not at the same level as that of control rats
permeability PAMPA Pe [6]: 13.8 × 10^–6 cm/s
hepatotoxic (statistically significant HepG2 viability decrease) [7]: >25 µM
mutagenic [8]: no
ABCB1 inhibition [9]: potent inhibitor of ABCB1
Ki [10]: 2.29 µM
Ki [11]: 0.039 µM
memory-protective action at doses as low as [12]: 0.3 mg/kg
